For 28 compounds, melting point results are on record in patent US8293768B2, “Organic compounds” (Novartis AG, priority 2006, dated 2012).

Compound `Cc1nc(N2C(=O)CN(c3ccc(F)cc3)C2=O)sc1C(=O)NCc1ccccc1` [Example 2, N-benzyl-2-(3-(4-fluorophenyl)-2,5-dioxoimidazolidin-1-yl)-4-methylthiazole-5-carboxamide] showed a melting point of 217 to 219 °C.
Next, `CCOC(=O)c1sc(N2CCNC2=O)nc1C` [Example 3, ethyl 4-methyl-2-(2-oxoimidazolidin-1-yl)thiazole-5-carboxylate]: 197 to 199 °C.
As to `COC(=O)c1cnc(N2CCNC2=O)s1` [Example 3.1, methyl 2-(2-oxoimidazolidin-1-yl)thiazole-5-carboxylate], the melting point lay in the range of 205 to 208 °C.
As for `CCOC(=O)c1sc(N2CCNC2=O)nc1C(F)(F)F` [Example 3.2, ethyl 2-(2-oxoimidazolidin-1-yl)-4-(trifluoromethyl)thiazole-5-carboxylate], the melting point fell in the range of 185 to 187 °C.
To `CCOC(=O)c1sc(N2CCN(Cc3ccccc3)C2=O)nc1C` [Example 5, ethyl 2-(3-benzyl-2-oxoimidazolidin-1-yl)-4-methylthiazole-5-carboxylate] belongs 122 to 124 °C; to `CCOC(=O)c1sc(N2CCN(Cc3ccc(C(F)(F)F)cc3)C2=O)nc1C` [Example 5.2, ethyl 4-methyl-2-(2-oxo-3-(4-(trifluoromethyl)benzyl)imidazolidin-1-yl)thiazole-5-carboxylate], 126 to 127 °C.
Next, `CC(=O)c1sc(N2CCN(Cc3ccc(C(F)(F)F)cc3)C2=O)nc1C` [Example 5.10, 1-(5-acetyl-4-methylthiazol-2-yl)-3-(4-(trifluoromethyl)benzyl)imidazolidin-2-one]: 141 to 142 °C; `COC(=O)c1ccc(CN2CCN(c3nc(C)c(C(C)=O)s3)C2=O)cc1` [Example 5.11, methyl 4-((3-(5-acetyl-4-methylthiazol-2-yl)-2-oxoimidazolidin-1-yl)methyl)benzoate]: 174 to 175 °C.
`COC(=O)c1ccc(CN2CCN(c3nc(C)cs3)C2=O)cc1` [Example 5.13, methyl 4-((3-(4-methylthiazol-2-yl)-2-oxoimidazolidin-1-yl)methyl)benzoate] yielded a melting point of 157 to 158 °C.
As to `Cc1csc(N2CCN(Cc3ccc(C(F)(F)F)cc3)C2=O)n1` [Example 5.14, 1-(4-methylthiazol-2-yl)-3-(4-(trifluoromethyl)benzyl)imidazolidin-2-one], the melting point fell in the range of 102 to 103 °C.
Regarding `COC(=O)c1cccc(CN2CCN(c3nc(C)c(C(C)=O)s3)C2=O)c1` [Example 5.17, methyl 3-((3-(5-acetyl-4-methylthiazol-2-yl)-2-oxoimidazolidin-1-yl)methyl)benzoate], the melting point lay within 122 to 124 °C.
To `Cc1nc(N2CCN(c3ccccc3)C2=O)sc1C(=O)O` [Example 6, 4-methyl-2-(2-oxo-3-phenylimidazolidin-1-yl)thiazole-5-carboxylic acid] belongs 286 to 289 °C; to `Cc1nc(N2CCN(Cc3ccccc3)C2=O)sc1C(=O)O` [Example 6.2, 2-(3-benzyl-2-oxoimidazolidin-1-yl)-4-methylthiazole-5-carboxylic acid], 248 to 249 °C; to `Cc1nc(N2CCN(Cc3ccc(C(F)(F)F)cc3)C2=O)sc1C(=O)O` [Example 6.5, 4-methyl-2-(2-oxo-3-(4-(trifluoromethyl)benzyl)imidazolidin-1-yl)thiazole-5-carboxylic acid], 195 to 197 °C.
In the case of `Cc1nc(N2CCN(CCCc3ccccc3)C2=O)sc1C(=O)O` [Example 6.12, 4-methyl-2-(2-oxo-3-(3-phenylpropyl)imidazolidin-1-yl)thiazole-5-carboxylic acid], the melting point lay within 218 to 221 °C.
With `Cc1csc(N2CCN(Cc3ccc(C(=O)O)cc3)C2=O)n1` [Example 6.23, 4-((3-(4-methylthiazol-2-yl)-2-oxoimidazolidin-1-yl)methyl)benzoic acid], the melting point lay in the range of 222 to 224 °C.
To `Cc1nc(N2CCN(c3ccccc3)C2=O)sc1C(=O)NCc1ccccc1` [Example 7, N-benzyl-4-methyl-2-(2-oxo-3-phenylimidazolidin-1-yl)thiazole-5-carboxamide] belongs 234 to 236 °C.
The compound `Cc1nc(N2CCN(Cc3ccccc3)C2=O)sc1C(=O)NCc1ccccc1` [Example 8, N-benzyl-2-(3-benzyl-2-oxoimidazolidin-1-yl)-4-methylthiazole-5-carboxamide] had a melting point of 169 to 171 °C.
For `Cc1nc(N2CCN(Cc3ccccc3)C2=O)sc1C(=O)NCc1cccc(F)c1` [Example 8.1, 2-(3-benzyl-2-oxoimidazolidin-1-yl)-N-(3-fluorobenzyl)-4-methylthiazole-5-carboxamide], the melting point was 169 to 171 °C.
To `CCNC(=O)c1sc(N2CCN(Cc3ccc(OC(F)(F)F)cc3)C2=O)nc1C` [Example 8.2, N-ethyl-4-methyl-2-(2-oxo-3-(4-(trifluoromethoxy)benzyl)imidazolidin-1-yl)thiazole-5-carboxamide] belongs 218 to 219 °C; to `Cc1nc(N2CCN(Cc3ccc(OC(F)(F)F)cc3)C2=O)sc1C(=O)NCCC1CC1` [Example 8.3, N-(2-cyclopropylethyl)-4-methyl-2-(2-oxo-3-(4-(trifluoromethoxy)benzyl)imidazolidin-1-yl)thiazole-5-carboxamide], 195 to 196 °C.
Next, `Cc1nc(N2CCN(Cc3ccc(F)cc3)C2=O)sc1C(=O)NCCN1CCCC1` [Example 8.4, 2-(3-(4-fluorobenzyl)-2-oxoimidazolidin-1-yl)-4-methyl-N-(2-(pyrrolidin-1-yl)ethyl)thiazole-5-carboxamide]: 183 to 184 °C; `CNC(=O)c1ccc(CN2CCN(c3nc(C)c(C(C)=O)s3)C2=O)cc1` [Example 8.6, 4-((3-(5-acetyl-4-methylthiazol-2-yl)-2-oxoimidazolidin-1-yl)methyl)-N-methylbenzamide]: 173 to 175 °C; `Cc1csc(N2CCN(Cc3ccc(C(=O)Nc4ccc(F)cc4)cc3)C2=O)n1` [Example 8.7, N-(4-fluorophenyl)-4-((3-(4-methylthiazol-2-yl)-2-oxoimidazolidin-1-yl)methyl)benzamide]: 206 to 207 °C.
On to `Cc1csc(N2CCN(Cc3ccc(C(=O)n4nccc4C)cc3)C2=O)n1` [Example 8.8, 1-(4-(5-methyl-1H-pyrazole-1-carbonyl)benzyl)-3-(4-methylthiazol-2-yl)imidazolidin-2-one], for which the melting point was in the range of 96 to 97 °C.
`Cc1csc(N2CCN(Cc3ccc(C(=O)NCc4ccccc4)cc3)C2=O)n1` [Example 8.9, N-benzyl-4-((3-(4-methylthiazol-2-yl)-2-oxoimidazolidin-1-yl)methyl)benzamide] showed a melting point of 185 to 186 °C.
`Cc1csc(NC(=O)c2ccc(CN3CCN(c4nc(C)cs4)C3=O)cc2)n1` [Example 8.10, N-(4-methylthiazol-2-yl)-4-((3-(4-methylthiazol-2-yl)-2-oxoimidazolidin-1-yl)methyl)benzamide] yielded a melting point of 197 to 198 °C.
To `Cc1nc(N2CCN(Cc3ccc(OC(F)(F)F)cc3)C2=O)sc1C(=O)NCC1CC1` [Example 8.12, N-(cyclopropylmethyl)-4-methyl-2-(2-oxo-3-(4-(trifluoromethoxy)benzyl)imidazolidin-1-yl)thiazole-5-carboxamide] belongs 184 to 186 °C.
